Measured values published in ChEMBL document CHEMBL4270599, “Synthesis of a 3'-C-ethynyl-β-d-ribofuranose purine nucleoside library: Discovery of C7-deazapurine analogs as potent antiproliferative nucleosides” (Eur J Med Chem, 2018).

How the values were obtained:
Type in all cases: functional
SR [1] = assay: Growth inhibition of human SR cells assessed as cell growth at 10^-5 M incubated for 48 hrs by sulforhodamine B assay relative to control; settings: read-out: Activity
KM12 [2] = assay: Growth inhibition of human KM12 cells assessed as cell growth at 10^-6 M incubated for 48 hrs by sulforhodamine B assay relative to control; settings: KM12, 48 h, read-out: Activity
A498 = assay: Growth inhibition of human A498 cells assessed as cell growth at 10^-7 M incubated for 48 hrs by sulforhodamine B assay relative to control; settings: A498, 48 h, read-out: Activity
MDA-MB-468 [3] = assay: Cytotoxicity against human MDA-MB-468 cells after 48 hrs by SRB assay; settings: MDA-MB-468, 48 h
NCI-H23 = assay: Cytotoxicity against human NCI-H23 cells after 48 hrs by SRB assay; settings: NCI-H23, 48 h
DU-145 = assay: Growth inhibition of human DU145 cells assessed as cell growth at 10^-8 M incubated for 48 hrs by sulforhodamine B assay relative to control; settings: DU-145, 48 h, read-out: Activity
HT-29 = assay: Growth inhibition of human HT-29 cells assessed as cell growth at 10^-4 M incubated for 48 hrs by sulforhodamine B assay relative to control; settings: HT-29, 48 h, read-out: Activity
HCT-15 = assay: Growth inhibition of human HCT15 cells assessed as cell growth at 10^-8 M incubated for 48 hrs by sulforhodamine B assay relative to control; settings: HCT-15, 48 h, read-out: Activity
SW-620 = assay: Cytotoxicity against human SW620 cells after 48 hrs by SRB assay; settings: SW-620, 48 h
NCI-H226 [4] = assay: Growth inhibition of human NCI-H226 cells assessed as cell growth at 10^-8 M incubated for 48 hrs by sulforhodamine B assay relative to control; settings: NCI-H226, 48 h, read-out: Activity
MDA-MB-468 [5] = assay: Growth inhibition of human MDA-MB-468 cells assessed as cell growth at 10^-7 M incubated for 48 hrs by sulforhodamine B assay relative to control; settings: MDA-MB-468, 48 h, read-out: Activity
HOP-92 = assay: Cytotoxicity against human HOP92 cells after 48 hrs by SRB assay; settings: HOP-92, 48 h
SN12C = assay: Cytotoxicity against human SN12C cells after 48 hrs by SRB assay
UACC-62 = assay: Growth inhibition of human UACC62 cells assessed as cell growth at 10^-7 M incubated for 48 hrs by sulforhodamine B assay relative to control; settings: UACC-62, 48 h, read-out: Activity
SF-268 [6] = assay: Cytotoxicity against human SF268 cells after 48 hrs by SRB assay; settings: SF-268, 48 h
MDA-MB-435 = assay: Cytotoxicity against human MDA-MB-435 cells after 48 hrs by SRB assay; settings: MDA-MB-435, 48 h
KM12 [7] = assay: Growth inhibition of human KM12 cells assessed as cell growth at 10^-7 M incubated for 48 hrs by sulforhodamine B assay relative to control; settings: KM12, 48 h, read-out: Activity
NCI-H522 = assay: Growth inhibition of human NCI-H522 cells assessed as cell growth at 10^-8 M incubated for 48 hrs by sulforhodamine B assay relative to control; settings: NCI-H522, 48 h, read-out: Activity
786-0 = assay: Growth inhibition of human 786-0 cells assessed as cell growth at 10^-7 M incubated for 48 hrs by sulforhodamine B assay relative to control; settings: 786-0, 48 h, read-out: Activity
SK-MEL-28 = assay: Growth inhibition of human SK-MEL-28 cells assessed as cell growth at 10^-5 M incubated for 48 hrs by sulforhodamine B assay relative to control; settings: SK-MEL-28, 48 h, read-out: Activity
SF-268 [8] = assay: Growth inhibition of human SF268 cells assessed as cell growth at 10^-6 M incubated for 48 hrs by sulforhodamine B assay relative to control; settings: SF-268, 48 h, read-out: Activity
PC-3 = assay: Growth inhibition of human PC3 cells assessed as cell growth at 10^-7 M incubated for 48 hrs by sulforhodamine B assay relative to control; settings: PC-3, 48 h, read-out: Activity
SR [9] = assay: Growth inhibition of human SR cells assessed as cell growth at 10^-4 M incubated for 48 hrs by sulforhodamine B assay relative to control; settings: read-out: Activity
NCI-H226 [10] = assay: Cytotoxicity against human NCI-H226 cells after 48 hrs by SRB assay; settings: NCI-H226, 48 h
[11] = read-out: pLC50 (the source's name) (converted)
[12] = read-out: LC50 (the source's name)

Q: What does the source list for C#C[C@@]1(O)[C@@H](CO)O[C@@H](n2cc(Cl)c3c(N)ncnc32)[C@@H]1O?
A: growth at 10 µM (SR [1]): 1 to 5%; growth at 1 µM (KM12 [2]): 3 to 12%; growth at 0.1 µM (A498): 105 to 111%; GI50 (MDA-MB-468 [3]; read-out: GI50): 180 to 243 nM; TGI (MDA-MB-468 [3]; read-out: TGI): 451 to 751 nM; CC50 (MDA-MB-468 [3]; [11]): 2090 nM; GI50 (NCI-H23; read-out: GI50): 173 to 213 nM; TGI (NCI-H23; read-out: TGI): 716 to 1280 nM; CC50 (NCI-H23; [11]): > 100000 nM; growth at 0.01 µM (DU-145): 96 to 100%; growth at 100 µM (HT-29): 1%; growth at 0.01 µM (HCT-15): 78 to 80%; GI50 (SW-620; read-out: GI50): 51.3 to 98 nM; TGI (SW-620; read-out: TGI): > 100000 nM; CC50 (SW-620; [11]): > 100000 nM; growth at 0.01 µM (NCI-H226 [4]): 99 to 108%; growth at 0.1 µM (MDA-MB-468 [5]): 82 to 89%; GI50 (HOP-92; read-out: GI50): 433 to 476 nM; CC50 (HOP-92; [12]): > 100000 nM; TGI (HOP-92; read-out: TGI): 3330 to 3740 nM; GI50 (SN12C; read-out: GI50): 113 to 230 nM; CC50 (SN12C; [12]): > 100000 nM; growth at 0.1 µM (UACC-62): 75 to 81%; GI50 (SF-268 [6]; read-out: GI50): 328 to 338 nM; TGI (SF-268 [6]; read-out: TGI): 14400 to 31100 nM; CC50 (SF-268 [6]; [11]): > 100000 nM; GI50 (MDA-MB-435; read-out: GI50): 132 to 208 nM; CC50 (MDA-MB-435; [12]): 4670 to 100000 nM; TGI (MDA-MB-435; read-out: TGI): 520 to 10200 nM; growth at 0.1 µM (KM12 [7]): 55 to 60%; growth at 0.01 µM (NCI-H522): 82 to 88%; growth at 0.1 µM (786-0): 89 to 94%; growth at 10 µM (SK-MEL-28): 44 to 45%; growth at 1 µM (SF-268 [8]): 23 to 24%; growth at 0.1 µM (PC-3): 62 to 70%; growth at 100 µM (SR [9]): 2 to 5%; GI50 (NCI-H226 [10]; read-out: GI50): 308 to 837 nM; CC50 (NCI-H226 [10]; [12]): > 100000 nM; TGI (NCI-H226 [10]; read-out: TGI): 901 to 100000 nM
